Source: patent publication US11135234B2, “Effective aminoglycoside antibiotic for multidrug-resistant bacteria” (MICROBIAL CHEMISTRY RESEARCH FOUNDATION, priority 2015, dated 2021)
≈ marks a conversion by molar mass, not a printed value.

Legend:
E. coli JM109/pMW218 = experiment: MIC, agar plate dilution method, E. coli JM109/pMW218; type: cell-based, Escherichia coli; settings: for MIC: Escherichia coli, JM109/PMW218, E. coli JM109/pMW218, Sensitive bacterium, read-out: minimal inhibitory concentration (MIC); for minimal inhibitory concentration (MIC): E. coli JM109/pMW218, Sensitive bacterium
Outline: (§1)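 Agar plate dilution per Japan Society of Chemotherapy standard; read-out = MIC in μg/mL.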

P. aeruginosa MSC01035 = experiment: MIC, agar plate dilution method, P. aeruginosa MSC01035; type: cell-based, Pseudomonas aeruginosa; settings: P. aeruginosa MSC01035, ABK-resistant; for MIC: Pseudomonas aeruginosa, read-out: minimal inhibitory concentration (MIC)
Outline: as §1

[1] = system: A. baumannii ATCC BAA-1710; experiment: MIC, agar plate dilution method, A. baumannii ATCC BAA-1710; type: cell-based, Acinetobacter baumannii; settings: for MIC: Acinetobacter baumannii, ATCCBAA1710, A. baumannii ATCC BAA-1710, MDRA, read-out: minimal inhibitory concentration (MIC); for minimal inhibitory concentration (MIC): A. baumannii ATCC BAA-1710, MDRA
Outline: as §1

S. aureus RN4220/pMS520 = experiment: MIC, agar plate dilution method, S. aureus RN4220/pMS520; type: cell-based, Staphylococcus aureus; settings: for MIC: Staphylococcus aureus, MRSA, read-out: minimal inhibitory concentration (MIC), S. aureus RN4220/pMS520, MRSA; for minimal inhibitory concentration (MIC): S. aureus RN4220/pMS520, MRSA
Outline: as §1

P. aeruginosa PAO1/GN315 = experiment: MIC, agar plate dilution method, P. aeruginosa PAO1/GN315; type: cell-based, Pseudomonas aeruginosa; settings: for MIC: Pseudomonas aeruginosa, read-out: minimal inhibitory concentration (MIC), P. aeruginosa PAO1/GN315, AMK-resistant; for minimal inhibitory concentration (MIC): P. aeruginosa PAO1/GN315, AMK-resistant
Outline: as §1

P. aeruginosa PAO1 = experiment: MIC, agar plate dilution method, P. aeruginosa PAO1; type: cell-based, Pseudomonas aeruginosa; settings: for MIC: Pseudomonas aeruginosa, PAO1, P. aeruginosa PAO1, Sensitive bacterium, read-out: minimal inhibitory concentration (MIC); for minimal inhibitory concentration (MIC): P. aeruginosa PAO1, Sensitive bacterium
Outline: as §1

S. marcescens GN6944 = experiment: MIC, agar plate dilution method, S. marcescens GN6944; type: cell-based, Serratia marcescens; settings: S. marcescens GN6944, GM-resistant; for MIC: Serratia marcescens, read-out: minimal inhibitory concentration (MIC)
Outline: as §1

P. aeruginosa MSC17707 = experiment: MIC, agar plate dilution method, P. aeruginosa MSC17707; type: cell-based, Pseudomonas aeruginosa; settings: for MIC: Pseudomonas aeruginosa, MSC17707, P. aeruginosa MSC17707, AMK-resistant, read-out: minimal inhibitory concentration (MIC); for minimal inhibitory concentration (MIC): P. aeruginosa MSC17707, AMK-resistant
Outline: as §1

[2] = system: K. pneumoniae ATCC BAA-1705; experiment: MIC, agar plate dilution method, K. pneumoniae ATCC BAA-1705; type: cell-based, Klebsiella pneumoniae; settings: for MIC: Klebsiella pneumoniae, ATCCBAA1705, K. pneumoniae ATCC BAA-1705, KPC-producing strain, read-out: minimal inhibitory concentration (MIC); for minimal inhibitory concentration (MIC): K. pneumoniae ATCC BAA-1705, KPC-producing strain
Outline: as §1

E. faecium ATCC19434 = experiment: MIC, agar plate dilution method, E. faecium ATCC19434; type: cell-based, Enterococcus faecium; settings: for MIC: Enterococcus faecium, ATCC19434, E. faecium ATCC19434, read-out: minimal inhibitory concentration (MIC); for minimal inhibitory concentration (MIC): E. faecium ATCC19434
Outline: as §1

S. aureus RN4220 = experiment: MIC, agar plate dilution method, S. aureus RN4220; type: cell-based, Staphylococcus aureus; settings: for MIC: Staphylococcus aureus, RN4220, S. aureus RN4220, Sensitive bacterium, read-out: minimal inhibitory concentration (MIC); for minimal inhibitory concentration (MIC): S. aureus RN4220, Sensitive bacterium
Outline: as §1

S. aureus MF490 = experiment: MIC, agar plate dilution method, S. aureus MF490; type: cell-based, Staphylococcus aureus; settings: for MIC: Staphylococcus aureus, MRSA, read-out: minimal inhibitory concentration (MIC); for minimal inhibitory concentration (MIC): S. aureus MF490, MRSA
Outline: as §1

[3] = system: K. pneumoniae ATCC BAA-2146; experiment: MIC, agar plate dilution method, K. pneumoniae ATCC BAA-2146; type: cell-based, Klebsiella pneumoniae; settings: for MIC: Klebsiella pneumoniae, ATCCBAA2146, K. pneumoniae ATCC BAA-2146, NDM-producing strain, read-out: minimal inhibitory concentration (MIC); for minimal inhibitory concentration (MIC): K. pneumoniae ATCC BAA-2146, NDM-producing strain
Outline: as §1

S. marcescens TH-0447 = experiment: MIC, agar plate dilution method, S. marcescens TH-0447; type: cell-based, Serratia marcescens; settings: for MIC: Serratia marcescens, TH0447, S. marcescens TH-0447, AMK-resistant, read-out: minimal inhibitory concentration (MIC); for minimal inhibitory concentration (MIC): S. marcescens TH-0447, AMK-resistant
Outline: as §1

SMILES | MIC (E. coli JM109/pMW218) | MIC (P. aeruginosa MSC01035) | MIC [1] | MIC (S. aureus RN4220/pMS520) | MIC (P. aeruginosa PAO1/GN315) | MIC (P. aeruginosa PAO1) | MIC (S. marcescens GN6944) | MIC (P. aeruginosa MSC17707) | MIC [2] | MIC (E. faecium ATCC19434) | MIC (S. aureus RN4220) | MIC (S. aureus MF490) | MIC [3] | MIC (S. marcescens TH-0447) | minimal inhibitory concentration (MIC) (E. coli JM109/pMW218) | minimal inhibitory concentration (MIC) (P. aeruginosa MSC01035) | minimal inhibitory concentration (MIC) [1] | minimal inhibitory concentration (MIC) (S. aureus RN4220/pMS520) | minimal inhibitory concentration (MIC) (P. aeruginosa PAO1/GN315) | minimal inhibitory concentration (MIC) (P. aeruginosa PAO1) | also measured
CNC1C(O[C@H]2OC(CO)[C@@H](NCCCN)[C@H](O)C2O)O[C@H]2CC(N)[C@@H](O[C@H]3CC(O)[C@H](N)CC3N)OC2C1O (stereo partly shown) [Compound S1-c, 4″-N-(3-aminopropyl)-5-deoxyapramycin] | 1 µg/mL (≈ 1.72 µM) | 8 µg/mL (≈ 13.8 µM) | 8 µg/mL (≈ 13.8 µM) | 2 µg/mL (≈ 3.44 µM) | 4 µg/mL (≈ 6.89 µM) | 4 µg/mL (≈ 6.89 µM) | 8 µg/mL (≈ 13.8 µM) | 8 µg/mL (≈ 13.8 µM) | 1 µg/mL (≈ 1.72 µM) | 8 µg/mL (≈ 13.8 µM) | 2 µg/mL (≈ 3.44 µM) | 4 µg/mL (≈ 6.89 µM) | 1 µg/mL (≈ 1.72 µM) | 8 µg/mL (≈ 13.8 µM) | – | – | – | – | – | – | –
CNC1C(O[C@H]2OC(CO)[C@@H](NC3CN(C)C3)[C@H](O)C2O)O[C@H]2CC(N)[C@@H](O[C@@H]3C(N)C[C@@H](N)C(O)[C@H]3O)OC2C1O (stereo partly shown) [Compound A4-i, 4″-N-(1-methylazetidin-3-yl)apramycin] | 1 µg/mL (≈ 1.64 µM) | 16 µg/mL (≈ 26.3 µM) | 16 µg/mL (≈ 26.3 µM) | 4 µg/mL (≈ 6.57 µM) | 16 µg/mL (≈ 26.3 µM) | 8 µg/mL (≈ 13.1 µM) | 8 µg/mL (≈ 13.1 µM) | 16 µg/mL (≈ 26.3 µM) | 2 µg/mL (≈ 3.29 µM) | 32 µg/mL (≈ 52.6 µM) | 4 µg/mL (≈ 6.57 µM) | 16 µg/mL (≈ 26.3 µM) | 2 µg/mL (≈ 3.29 µM) | 16 µg/mL (≈ 26.3 µM) | – | – | – | – | – | – | –
CNC1C(OC2CC(O)C(N)C(CO)O2)OC2CC(N)C(OC3C(N)CC(N)C(O)C3O)OC2C1O (stereo not shown) [Compound Y3, 2″-deoxy-5,3″-diepiapramycin] | – | – | – | – | – | – | – | – | – | – | – | – | – | – | 1 µg/mL (≈ 1.91 µM) | 16 µg/mL (≈ 30.6 µM) | 8 µg/mL (≈ 15.3 µM) | 2 µg/mL (≈ 3.82 µM) | 8 µg/mL (≈ 15.3 µM) | 4 µg/mL (≈ 7.64 µM) | minimal inhibitory concentration (MIC) (S. marcescens GN6944): 4 µg/mL (≈ 7.64 µM); minimal inhibitory concentration (MIC) (P. aeruginosa MSC17707): 8 µg/mL (≈ 15.3 µM); minimal inhibitory concentration (MIC) [2]: 2 µg/mL (≈ 3.82 µM); minimal inhibitory concentration (MIC) (E. faecium ATCC19434): 8 µg/mL (≈ 15.3 µM); minimal inhibitory concentration (MIC) (S. aureus RN4220): 2 µg/mL (≈ 3.82 µM); minimal inhibitory concentration (MIC) (S. aureus MF490): 4 µg/mL (≈ 7.64 µM); minimal inhibitory concentration (MIC) [3]: 2 µg/mL (≈ 3.82 µM); minimal inhibitory concentration (MIC) (S. marcescens TH-0447): 8 µg/mL (≈ 15.3 µM)
CNC1C(O[C@H]2OC(CO)[C@@H](NC(=N)N)[C@H](O)C2O)O[C@H]2CC(N)[C@@H](O[C@@H]3C(N)C[C@@H](N)C[C@H]3O)OC2C1O (stereo partly drawn) [Compound S1-o, 4″-deamino-6-deoxy-5-epi-4″-guanidinoapramycin] | 0.5 µg/mL (≈ 0.884 µM) | 4 µg/mL (≈ 7.07 µM) | 4 µg/mL (≈ 7.07 µM) | 1 µg/mL (≈ 1.77 µM) | 4 µg/mL (≈ 7.07 µM) | 2 µg/mL (≈ 3.54 µM) | 2 µg/mL (≈ 3.54 µM) | 4 µg/mL (≈ 7.07 µM) | 1 µg/mL (≈ 1.77 µM) | 8 µg/mL (≈ 14.1 µM) | 1 µg/mL (≈ 1.77 µM) | 2 µg/mL (≈ 3.54 µM) | 0.5 µg/mL (≈ 0.884 µM) | 4 µg/mL (≈ 7.07 µM) | – | – | – | – | – | – | –
CN[C@@H]1[C@@H](O[C@H]2O[C@H](CO)[C@@H](NC(=O)[C@H](N)CO)[C@H](O)[C@H]2O)O[C@H]2C[C@@H](N)[C@@H](O[C@H]3[C@H](O)[C@@H](O)[C@H](N)C[C@@H]3N)O[C@@H]2[C@@H]1O [Compound V1-f, 4″-N-(D-seryl)apramycin] | – | – | – | – | – | – | – | – | – | – | – | – | – | – | 2 µg/mL (≈ 3.19 µM) | 8 µg/mL (≈ 12.8 µM) | 8 µg/mL (≈ 12.8 µM) | 8 µg/mL (≈ 12.8 µM) | 8 µg/mL (≈ 12.8 µM) | 4 µg/mL (≈ 6.38 µM) | minimal inhibitory concentration (MIC) (S. marcescens GN6944): 16 µg/mL (≈ 25.5 µM); minimal inhibitory concentration (MIC) (P. aeruginosa MSC17707): 8 µg/mL (≈ 12.8 µM); minimal inhibitory concentration (MIC) [2]: 4 µg/mL (≈ 6.38 µM); minimal inhibitory concentration (MIC) (E. faecium ATCC19434): 64 µg/mL (≈ 102 µM); minimal inhibitory concentration (MIC) (S. aureus RN4220): 8 µg/mL (≈ 12.8 µM); minimal inhibitory concentration (MIC) (S. aureus MF490): 32 µg/mL (≈ 51.1 µM); minimal inhibitory concentration (MIC) [3]: 2 µg/mL (≈ 3.19 µM); minimal inhibitory concentration (MIC) (S. marcescens TH-0447): 16 µg/mL (≈ 25.5 µM)
